In general, EC50 refers to the concentration that produces a half-maximal response. Read a low EC50 as higher potency in that assay.

This experiment addresses T1, hFXR (Homo sapiens, UniProt Q96RI1).
T1 construct: expressed in transfected cells; host or cells: CV-1 cells
T1 sequence (Q96RI1 1-486): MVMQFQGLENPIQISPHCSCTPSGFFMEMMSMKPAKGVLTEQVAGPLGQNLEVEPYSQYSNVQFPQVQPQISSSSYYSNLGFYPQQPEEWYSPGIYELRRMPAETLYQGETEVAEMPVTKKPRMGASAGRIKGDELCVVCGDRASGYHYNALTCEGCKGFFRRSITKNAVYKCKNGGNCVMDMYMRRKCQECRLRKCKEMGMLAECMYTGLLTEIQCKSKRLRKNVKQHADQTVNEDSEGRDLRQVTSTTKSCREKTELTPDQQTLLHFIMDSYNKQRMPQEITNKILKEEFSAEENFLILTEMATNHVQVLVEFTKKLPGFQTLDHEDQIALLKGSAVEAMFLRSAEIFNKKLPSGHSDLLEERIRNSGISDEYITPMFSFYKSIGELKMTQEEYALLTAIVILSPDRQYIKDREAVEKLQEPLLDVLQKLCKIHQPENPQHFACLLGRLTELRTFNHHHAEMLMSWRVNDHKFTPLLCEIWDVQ
T1 sequence (P19793 1-462 partner): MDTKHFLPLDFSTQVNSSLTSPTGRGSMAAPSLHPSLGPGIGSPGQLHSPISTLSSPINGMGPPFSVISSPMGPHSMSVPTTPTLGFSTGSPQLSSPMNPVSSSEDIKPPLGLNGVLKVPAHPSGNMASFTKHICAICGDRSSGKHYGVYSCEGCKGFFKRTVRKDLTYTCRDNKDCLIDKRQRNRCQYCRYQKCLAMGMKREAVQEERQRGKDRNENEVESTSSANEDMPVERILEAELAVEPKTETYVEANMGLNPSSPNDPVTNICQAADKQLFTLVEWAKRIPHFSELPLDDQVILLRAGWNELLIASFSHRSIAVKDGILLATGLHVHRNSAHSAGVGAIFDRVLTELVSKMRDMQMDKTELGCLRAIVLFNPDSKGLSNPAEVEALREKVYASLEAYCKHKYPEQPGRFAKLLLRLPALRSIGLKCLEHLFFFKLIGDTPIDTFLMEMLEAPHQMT
The experiment in a line: In Vitro FXR Assay (TK): TK-ECRE-luc reporter in transfected CV-1 cells. It counts as cell-based. The following applies: CV-1 cells transfected with hFXR, hRXR, pCMX-YFP, 18 hrs incubation, luminescence. Here is the method: Example B-1: In Vitro FXR Assay (TK)
CV-1 cells were seeded at a density of 2,000,000 cells in a T175 flask with DMEM+10% charcoal double-stripped FBS and incubated at 37° C. in 5% CO2 for 18 h (O/N).
After 18 h of incubation, the medium in the T175 flask was changed with fresh DMEM+10% charcoal super-stripped serum. In a polypropylene tube, 2500 μL OptiMEM (Life Technologies, Cat #31985-062) was combined with expression plasmids for hFXR, hRXR, TK-ECRE-luc and pCMX-YFP. The tube was then briefly vortexed and incubated at room temperature for 5 minutes. Transfection reagent (X-tremeGENE HP from Roche, Cat #06 366 236 001) was added to the OptiMEM/plasmid mixture vortexed and incubated at room temperature for 20 minutes. Following incubation, the transfection reagent/DNA mixture complex was added to cells in the T175 flask and the cells were incubated at 37° C. in 5% CO2 for 18 h (O/N).
Compounds were serially diluted in DMSO and added to transfected CV-1 cells. The cells were then incubated for 18 hrs. The next day cells were lysed and examined for luminescence.
Turning to `COc1ccc(C23CCC(CN(c4cc(-c5cnc(C(C)(C)C)s5)ccn4)C(=O)[C@H]4CC[C@H](OC(=O)N5CC[C@H]5CO)CC4)(CC2)CC3)cc1C` [Compound 2.10, (S)-4-((4-(2-(tert-Butyl)thiazol-5-yl)pyridin-2-yl)((4-(4-methoxy-3-methylphenyl)bicyclo[2.2.2]octan-1-yl)methyl)carbamoyl)cyclohexyl 2-(hydroxymethyl)azetidine- trans-1-carboxylate], the concentration giving a half-maximal response (EC50) was at most 10 nM.

Compound `CCC(C)(C)n1cc(-c2ccnc(N(CC34CCC(c5ccc(OC)c(C)c5)(CC3)CC4)C(=O)[C@H]3CC[C@H](OC(=O)N4CC(C)(O)C4)CC3)c2)cn1` [Compound 4.01, 4-(((4-(4-Methoxy-3-methylphenyl)bicyclo[2.2.2]octan-1-yl)methyl)(4-(1-(tert-pentyl)-1H-pyrazol-4-yl)pyridin-2-yl)carbamoyl) cyclohexyl trans-3-hydroxy-3-methylazetidine-1-carboxylate] yielded an EC50 of at most 10 nM.

As to `COc1ccc([C@H]2CC[C@H](CN(c3cc(-c4cnc(C(C)(C)C)s4)ccn3)C(=O)[C@H]3CC[C@H](OC(=O)N4CC(O)C4)CC3)CC2)cc1C` [Compound 1.01, trans-4-((4-(2-(tert-Butyl)thiazol-5-yl)pyridin-2-yl)(((trans)-4-(4-methoxy-3-methylphenyl)cyclohexyl)methyl)carbamoyl) cyclohexyl 3-hydroxyazetidine-1-carboxylate], the half-maximal effective concentration (EC50) fell in the range of 10 to 1000 nM.

Compound `COc1ccc(C23CCC(CN(c4cc(-c5cnn(C(C)(C)C)c5)ccn4)C(=O)[C@H]4CC[C@H](OC(=O)NCCCO)CC4)(CC2)CC3)cc1C` [Compound 2.31, 4-((4-(1-(tert-Butyl)-1H-pyrazol-4-yl)pyridin-2-yl)((4-(4-methoxy-3-methylphenyl)bicyclo[2.2.2]octan-1-yl)methyl)carbamoyl) (trans-cyclohexyl) (3-hydroxypropyl)carbamate] displayed an EC50 of at most 10 nM.

`COc1ccc(C23CCC(CN(c4cc(-c5cnn(C(C)(C)C)c5)ccn4)C(=O)[C@H]4CC[C@H](OC(=O)N5CC[C@H](O)C5)CC4)(CC2)CC3)cc1C` [Compound 2.34, (S)-4-((4-(1-(tert-Butyl)-1H-pyrazol-4-yl)pyridin-2-yl)((4-(4-methoxy-3-methylphenyl)bicyclo[2.2.2]octan-1-yl)methyl)carbamoyl) cyclohexyl trans-3-hydroxypyrrolidine-1-carboxylate] had an EC50 of at most 10 nM.

In turn, `COc1ccc(C23CCC(CN(c4cc(-c5cnn(C(C)(C)C)c5)ccn4)C(=O)[C@H]4CC[C@H](OC(=O)N5CC[C@H]5CO)CC4)(CC2)CC3)cc1C` [Compound 2.21, (S)-4-((4-(1-(tert-Butyl)-1H-pyrazol-4-yl)pyridin-2-yl)((4-(4-methoxy-3-methylphenyl)bicyclo[2.2.2]octan-1-yl)methyl)carbamoyl)cyclohexyl 2-(hydroxymethyl)azetidine- trans-1-carboxylate] displayed a half-maximal effective concentration (EC50) of at most 10 nM.

As to `CCC(C)(CC)n1cc(-c2ccnc(N(CC34CCC(c5ccc(OC)c(C)c5)(CC3)CC4)C(=O)[C@H]3CC[C@H](OC(=O)N4CCC(O)CC4)CC3)c2)cn1` [Compound 4.06, 4-(((4-(4-Methoxy-3-methylphenyl)bicyclo[2.2.2]octan-1-yl)methyl)(4-(1-(3-methylpentan-3-yl)-1H-pyrazol-4-yl)pyridin-2-yl)carbamoyl)cyclohexyl trans-4-hydroxypiperidine-1-carboxylate], the concentration for a half-maximal effect (EC50) is at most 10 nM.

The compound `COc1ccc(C23CCC(CN(c4cc(-c5coc(C(C)(C)C)n5)ccn4)C(=O)[C@H]4CC[C@H](OC(=O)N5CCC(O)CC5)CC4)(CC2)CC3)cc1C` [Compound 2.17, 4-((4-(2-(tert-Butyl)oxazol-4-yl)pyridin-2-yl)((4-(4-methoxy-3-methylphenyl)bicyclo[2.2.2]octan-1-yl)methyl)carbamoyl)cyclohexyl 4-hydroxypiperidine- trans-1-carboxylate] registered an EC50 of at most 10 nM.

The compound `COc1ccc(C23CCC(CN(c4cc(-c5cnn(C(C)(C)C)c5)ccn4)C(=O)[C@H]4CC[C@H](OC(=O)N5CC(CS(C)(=O)=O)C5)CC4)(CC2)CC3)cc1C` [Compound 2.24, 4-((4-(1-(tert-Butyl)-1H-pyrazol-4-yl)pyridin-2-yl)((4-(4-methoxy-3-methylphenyl)bicyclo[2.2.2]octan-1-yl)methyl)carbamoyl) (trans-cyclohexyl) 3-((methylsulfonyl)methyl) azetidine-1-carboxylate] registered an EC50 of at most 10 nM.

For `COc1ccc([C@H]2CC[C@H](CN(c3cc(-c4cnn(C(C)(C)C)c4)ccn3)C(=O)[C@H]3CC[C@H](OC(=O)NC4CCOCC4)CC3)CC2)cc1C` [Compound 1.11, trans-4-((4-(1-(tert-Butyl)-1H-pyrazol-4-yl)pyridin-2-yl)((trans-4-(4-methoxy-3-methylphenyl)cyclohexyl)methyl)carbamoyl) cyclohexyl (tetrahydro-2H-pyran-4-yl)carbamate], the EC50 is 10 to 1000 nM.

`COc1ccc(C23CCC(CN(c4cc(-c5cnn(C(C)(C)C)c5)ccn4)C(=O)[C@H]4CC[C@H](OC(=O)N5CCC(O)CC5)CC4)(CC2)CC3)cc1C` [Compound 2.27, 4-((4-(1-(tert-Butyl)-1H-pyrazol-4-yl)pyridin-2-yl)((4-(4-methoxy-3-methylphenyl)bicyclo[2.2.2]octan-1-yl)methyl)carbamoyl)cyclohexyl 4-hydroxypiperidine-trans-1-carboxylate] registered an EC50 of at most 10 nM.

On to `COc1c(C)cc(C23CCC(CN(c4nccc(-c5cnn(C(C)(C)C)c5)n4)C(=O)[C@H]4CC[C@H](OC(=O)N5CC(O)C5)CC4)(CC2)CC3)cc1C` [Compound 3.15, 4-((4-(1-(tert-Butyl)-1H-pyrazol-4-yl)pyrimidin-2-yl)((4-(4-methoxy-3,5-dimethylphenyl)bicyclo[2.2.2]octan-1-yl)methyl)carbamoyl) (trans-cyclohexyl) 3-hydroxyazetidine-1-carboxylate], for which the EC50 was in the range of 10 to 1000 nM.

In turn, `COc1ccc(C23CCC(CN(c4cc(-c5cnn(C(C)(C)C)c5)ccn4)C(=O)[C@H]4CC[C@H](OC(=O)NCCO)CC4)(CC2)CC3)cc1C` [Compound 2.30, 4-((4-(1-(tert-Butyl)-1H-pyrazol-4-yl)pyridin-2-yl)((4-(4-methoxy-3-methylphenyl)bicyclo[2.2.2]octan-1-yl)methyl)carbamoyl)cyclohexyl (2-hydroxyethyl)trans-carbamate] returned an EC50 of at most 10 nM.

As to `COc1ccc(C23CCC(CN(c4ccnc(-c5cnn(C(C)(C)C)c5)c4)C(=O)[C@H]4CC[C@H](OC(=O)N5CC(O)C5)CC4)(CC2)CC3)cc1C` [Compound 1.13, 4-((2-(1-(tert-Butyl)-1H-pyrazol-4-yl)pyridin-4-yl)((4-(4-methoxy-3-methylphenyl)bicyclo[2.2.2]octan-1-yl)methyl)carbamoyl) (trans-cyclohexyl) 3-hydroxyazetidine-1-carboxylate], the EC50 fell in the range of 10 to 1000 nM.

`COc1ccc([C@H]2CC[C@H](CN(c3cc(-c4cnn(C(C)(C)C)c4)ccn3)C(=O)[C@H]3CC[C@H](OC(=O)N4CC(O)C4)CC3)CC2)cc1C` [Compound 1.08, trans-4-((4-(1-(tert-Butyl)-1H-pyrazol-4-yl)pyridin-2-yl)((trans-4-(4-methoxy-3-methylphenyl)cyclohexyl)methyl)carbamoyl) cyclohexyl 3-hydroxyazetidine-1-carboxylate] returned an EC50 of 10 to 1000 nM.

On to `COc1ncc(C23CCC(CN(c4cc(-c5cnn(C(C)(C)C)c5)ccn4)C(=O)[C@H]4CC[C@H](OC(=O)N5CC(O)C5)CC4)(CC2)CC3)cc1C` [Compound 3.05, 4-((4-(1-(tert-Butyl)-1H-pyrazol-4-yl)pyridin-2-yl)((4-(6-methoxy-5-methylpyridin-3-yl)bicyclo[2.2.2]octan-1-yl)methyl)carbamoyl) (trans-cyclohexyl) 3-hydroxyazetidine-1-carboxylate], for which the EC50 is at most 10 nM.

(Values after patent US11773094B2, “Farnesoid X receptor agonists and uses thereof” (Metacrine, Inc., priority 2018, dated 2023).)
